We go through 22 compounds from patent publication US8349883B2, “Hydroxamate-based inhibitors of deacetylases B” (Novartis AG, priority 2008, dated 2013).

Structures are written as SMILES.

In one test the target is T1, HDAC-1 (Homo sapiens, UniProt Q13547).
T1 construct: made in house; host or cells: Sf9 or Sf21 insect cells (baculovirus, donor vector pFB-GSTX3)
Kind of test: HDAC inhibition assay (purified GST-HDAC protein). The class given is biochemical. The text has this:
The baculovirus donor vector pFB-GSTX3 was used to generate a recombinant baculovirus that can express the HDAC polypeptide. Transfer vectors containing the HDAC coding region were transfected into the DH10Bac cell line (GIBCO) and plated on selective agar plates. Colonies without insertion of the fusion sequence into the viral genome (carried by the bacteria) were blue. Single, white colonies were picked and viral DNAs (bacmid) were isolated from the bacteria by standard plasmid purification procedures. Sf9 cells or Sf21 (American Type Culture Collection) cells were then transfected in […] flasks with the viral DNA using Cellfectin reagent.
Virus-containing media was collected from the transfected cell culture and used for infection to increase its titer. Virus-containing media obtained after two rounds of infection was used for large-scale protein expression. For large-scale protein expression 100 cm^2 round tissue culture plates were seeded with 5×10^7 cells/plate and infected with 1 mL of virus-containing media (at an approximately MOI of 5). After 3 days, the cells were scraped off the plate and centrifuged at 500 rpm for 5 minutes. Cell pellets from 10-20, 100 cm^2 plates, were re-suspended in 50 mL of ice-cold lysis buffer (25 mM tris-HCl, pH 7.5, 2 mM EDTA, 1% NP-40, 1 mM DTT, 1 mM P MSF). The cells were stirred on ice for 15 minutes and then centrifuged at 5,000 rpms for 20 minutes.
The centrifuged cell lysate was loaded onto a 2 mL glutathione-sepharose column (Pharmacia) and was washed thrice with 10 mL of 25 mM tris-HCl, pH 7.5, 2 mM EDTA, 1 mM DTT, 200 mM NaCl. The GST-tagged proteins were then eluted by 10 applications (1 mL each) of 25 mM tris-HCl, pH 7.5, 10 mM reduced-glutathione, 100 mM NaCl, 1 mM DTT, 10% glycerol and stored at −70° C.
HDAC assays with purified GST-HDAC protein were carried out in a final volume of 30 μL containing 15 ng of GST-HDAC protein, 20 mM tris-HCl, pH 7.5, 1 mM MnCl2, 10 mM MgCl2, 1 mM DTT, 3 μg/mL poly(Glu,Tyr) 4:1, 1% DMSO, 2.0 μM ATP (γ-[^33P]-ATP 0.1 μCi). The activity was assayed in the presence or absence of inhibitors. The assay was carried out in 96-well plates at ambient temperature for 15 minutes under conditions described below and terminated by the addition of 20 μL of 125 mM EDTA. Subsequently, 40 μL of the reaction mixture were transferred onto EMMOBILON-PVDF membrane (Millipore) previously soaked for 5 minutes with methanol, rinsed with water, then soaked for 5 minutes with 0.5% H3PO4 and mounted on vacuum manifold with disconnected vacuum source. After spotting all samples, a vacuum was connected and each well rinsed with 200 μL 0.5% H3PO4. Membranes were removed and washed four times on a shaker with 1.0% H3PO4, once with ethanol. Membranes were counted after drying at ambient temperature, mounting in Packard TopCount 96-well frame, and addition of 10 μL/well of MICROSCINT™ (Packard). IC50 values were calculated by linear regression analysis of the percentage inhibition of each compound in duplicate, at 4 concentrations (usually 0.01, 0.1, 1 and 10 μM).
• Input: 3×4 μL stopped assay on IMMOBILON membrane, not washed • Background (3 wells): assay with H2O instead of enzyme • Positive control (4 wells): 3% DMSO instead of compound • Bath control (1 well): no reaction mix
IC50 values were calculated by logarithmic regression analysis of the percentage inhibition of each compound at 4 concentrations (usually 3- or 10-fold dilution series starting at 10 μM). In each experiment, the actual inhibition by reference compound was used for normalization of IC50 values to the basis of an average value of the reference inhibitor: Normalized IC50=measured IC50 average ref IC50/measured ref IC50
Example: Reference inhibitor in experiment 0.4 μM, average 0.3 μM, Test compound in experiment 1.0 μM, normalization: 0.3/0.4=0.75 μM
For example, known HDAC inhibitors or a synthetic derivative thereof may be used as reference compounds.

The subject of a further test is HCT116. Briefly: HCT116 IC50. It counts as cell-based. The note with it: Homo sapiens, HCT-116.

T1 sequence (Q13547 whole entry, species assumed): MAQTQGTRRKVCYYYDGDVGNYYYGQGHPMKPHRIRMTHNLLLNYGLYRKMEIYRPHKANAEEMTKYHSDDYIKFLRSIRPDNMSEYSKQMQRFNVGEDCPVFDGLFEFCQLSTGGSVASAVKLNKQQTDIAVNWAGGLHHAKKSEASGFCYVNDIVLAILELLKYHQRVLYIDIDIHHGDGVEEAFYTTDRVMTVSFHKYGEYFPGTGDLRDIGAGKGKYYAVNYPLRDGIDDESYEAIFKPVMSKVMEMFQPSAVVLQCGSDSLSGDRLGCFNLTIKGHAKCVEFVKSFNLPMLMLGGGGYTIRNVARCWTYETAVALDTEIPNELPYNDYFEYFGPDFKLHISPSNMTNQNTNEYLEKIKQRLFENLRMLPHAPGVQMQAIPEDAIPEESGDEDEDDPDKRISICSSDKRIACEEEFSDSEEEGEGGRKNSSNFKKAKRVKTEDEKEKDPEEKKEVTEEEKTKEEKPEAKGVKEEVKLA

In general, IC50 refers to the point on the concentration scale where inhibition reaches its midpoint. A low value points to greater potency. For the compound `O=C(/C=C/c1ccc([C@@H]2CCCN2CCn2ccc(C(F)(F)F)n2)cc1)NO` [Compound 73, (E)-N-Hydroxy-3-(4-{(S)-1-[2-(3-trifluoromethyl-pyrazol-1-yl)-ethyl]-pyrrolidin-2-yl}-phenyl)-acrylamide], the IC50 against HDAC-1 is 71 nM; in the test on HCT116, 230 nM.
The like results for `O=C(/C=C/c1ccc(C2CCCN2CCc2ccccc2)cc1)NO` (centres unmarked) [Compound 19, (E)-N-Hydroxy-3-[4-(1-phenethyl-pyrrolidin-2-yl)-phenyl]-acrylamide] were, in that order, 3 nM and 7 nM.
Taken in the same sequence, the figures for `CC(C)(C)c1[nH]c2ncccc2c1CCN1CCC[C@H]1c1ccc(/C=C/C(=O)NO)cc1` [Compound 52, (E)-3-(4-{(S)-1-[2-(2-tert-Butyl-1H-pyrrolo[2,3-b]pyridin-3-yl)-ethyl]-pyrrolidin-2-yl}-phenyl)-N-hydroxy-acrylamide] were 2.7 nM and 4.3 nM.
The like results for `O=C(/C=C/c1ccc(C2CCCN2CCc2ccc(O)cc2)cc1)NO` (centres unmarked) [Compound 20, (E)-N-Hydroxy-3-(4-{1-[2-(4-hydroxy-phenyl)-ethyl]-pyrrolidin-2-yl}-phenyl)-acrylamide] were, in that order, 3 nM and 11 nM.
For the compound `O=C(/C=C/c1ccc([C@@H]2CCCCN2CCc2cnn3ccccc23)cc1)NO` [Compound 85, (E)-N-Hydroxy-3-{4-[(S)-1-(2-pyrazolo[1,5-a]pyridin-3-yl-ethyl)-piperidin-2-yl]-phenyl}-acrylamide], the results for the IC50 against HDAC-1 and in the test with HCT116 were 4 nM and 9 nM, respectively.
The like results for `Nc1ccc(-n2cc(CCN3CCC[C@H]3c3ccc(/C=C/C(=O)NO)cc3)nn2)cc1` [Compound 79, (E)-3-[4-((S)-1-{2-[1-(4-Amino-phenyl)-1H-[1,2,3]triazol-4-yl]-ethyl}-pyrrolidin-2-yl)-phenyl]-N-hydroxy-acrylamide] were, in that order, 6 nM and 43 nM.
Taken in the same sequence, the figures for `Cc1c(CCN2CCC[C@H]2c2ccc(/C=C/C(=O)NO)cc2)c(=O)n(-c2ccccc2)n1C` [Compound 116, (E)-3-(4-{(S)-1-[2-(1,5-Dimethyl-3-oxo-2-phenyl-2,3-dihydro-1H-pyrazol-4-yl)-ethyl]-pyrrolidin-2-yl}-phenyl)-N-hydroxy-acrylamide] were 20 nM and 49 nM.
Taken in the same sequence, the figures for `Cc1oc(-c2ccccc2)nc1CCN1CCC[C@H]1c1ccc(/C=C/C(=O)NO)cc1` [Compound 57, (E)-N-Hydroxy-3-(4-{(S)-1-[2-(5-methyl-2-phenyl-oxazol-4-yl)-ethyl]-pyrrolidin-2-yl}-phenyl)-acrylamide] were 1.4 nM and 1 nM.
For `O=C(/C=C/c1ccc([C@@H]2CCCN2CCC2CCCCC2)cc1)NO` [Compound 41, (E)-3-{4-[(S)-1-(2-Cyclohexyl-ethyl)-pyrrolidin-2-yl]-phenyl}-N-hydroxy-acrylamide], the values for the IC50 at HDAC-1 and with HCT116 were 7 nM and 48 nM, respectively.
For `Cc1nn(C)c(C)c1CCN1CCC[C@@H]1c1ccc(/C=C/C(=O)NO)cc1` [Compound 110, (E)-N-Hydroxy-3-(4-{(R)-1-[2-(1,3,5-trimethyl-1H-pyrazol-4-yl)-ethyl]-pyrrolidin-2-yl}-phenyl)-acrylamide], the IC50 is 100 nM against HDAC-1 and 180 nM with HCT116.
Taken in the same sequence, the figures for `O=C(/C=C/c1ccc(C2CCCN2CCc2ccccc2F)cc1)NO` (centres unmarked) [Compound 27, (E)-3-(4-{1-[2-(2-Fluoro-phenyl)-ethyl]-pyrrolidin-2-yl}-phenyl)-N-hydroxy-acrylamide] were 6 nM and 11 nM.
Taken in the same sequence, the figures for `CN1CCN(CCc2cnn3ccccc23)C(c2ccc(/C=C/C(=O)NO)cc2)C1` (centres unmarked) [Compound 90, (E)-N-Hydroxy-3-{4-[4-methyl-1-(2-pyrazolo[1,5-a]pyridin-3-yl-ethyl)-piperazin-2-yl]-phenyl}-acrylamide] were 8 nM and 34 nM.
`Cc1[nH]c2ccccc2c1CCN1CCN(C(=O)OC(C)(C)C)CC1c1ccc(/C=C/C(=O)NO)cc1` (centres unmarked) [Compound 87, 3-[4-((E)-2-Hydroxycarbamoyl-vinyl)-phenyl]-4-[2-(2-methyl-1H-indol-3-yl)-ethyl]-piperazine-1-carboxylic acid tert-butyl ester]: the IC50 on HDAC-1 was 35 nM; in the test with HCT116, 58 nM.
Taken in the same sequence, the figures for `O=C(/C=C/c1ccc([C@@H]2CCCN2CCc2cnn3ccccc23)cc1)NO` [Compound 43, (E)-N-Hydroxy-3-{4-[(S)-1-(2-pyrazolo[1,5-a]pyridin-3-yl-ethyl)-pyrrolidin-2-yl]-phenyl}-acrylamide] were 1 nM and 1.1 nM.
Taken in the same sequence, the figures for `O=C(/C=C/c1ccc(C2CCCN2CCCc2c[nH]c3ccccc23)cc1)NO` (centres unmarked) [Compound 2, (E)-N-Hydroxy-3-(4-{1-[3-(1H-indol-3-yl)-propyl]-pyrrolidin-2-yl}-phenyl)-acrylamide] were 10 nM and 50 nM.
As to `O=C(/C=C/c1ccc([C@@H]2CCCN2CCC2CCOCC2)cc1)NO` [Compound 42, (E)-N-Hydroxy-3-(4-{(S)-1-[2-(tetrahydro-pyran-4-yl)-ethyl]-pyrrolidin-2-yl}-phenyl)-acrylamide], the IC50 was found to be 32 nM against HDAC-1 and 53 nM in the test with HCT116.
Regarding `CC(C)(C)c1[nH]c2cc([N+](=O)[O-])ccc2c1CCN1CCCC1c1ccc(/C=C/C(=O)NO)cc1` (centres unmarked) [Compound 9, (E)-3-(4-{1-[2-(2-tert-Butyl-6-nitro-1H-indol-3-yl)-ethyl]-pyrrolidin-2-yl}-phenyl)-N-hydroxy-acrylamide], the values for the IC50 against HDAC-1 and with HCT116 were 7 nM and 0.5 nM, respectively.
With `Cc1nn(-c2ccccc2)c(C)c1CCN1CCC[C@H]1c1ccc(/C=C/C(=O)NO)cc1` [Compound 55, (E)-3-(4-{(S)-1-[2-(3,5-Dimethyl-1-phenyl-1H-pyrazol-4-yl)-ethyl]-pyrrolidin-2-yl}-phenyl)-N-hydroxy-acrylamide], the IC50 on HDAC-1 stood at 2 nM; with HCT116, 1.1 nM.
Turning to `O=C(/C=C/c1ccc([C@@H]2CCCN2CCc2ccsc2)cc1)NO` [Compound 35, (E)-N-Hydroxy-3-{4-[(S)-1-(2-thiophen-3-yl-ethyl)-pyrrolidin-2-yl]-phenyl}-acrylamide], the IC50 stood at 5 nM on HDAC-1 and 9 nM in the test with HCT116.
The like results for `O=C(/C=C/c1ccc([C@@H]2CCCN2CCc2cn[nH]c2)cc1)NO` [Compound 58, (E)-N-Hydroxy-3-(4-{(S)-1-[2-(1H-pyrazol-4-yl)-ethyl]-pyrrolidin-2-yl}-phenyl)-acrylamide] were, in that order, 7 nM and 36 nM.
The like results for `Cc1[nH]c2ccccc2c1CCN1CCNCC1c1ccc(/C=C/C(=O)NO)cc1` (centres unmarked) [Compound 89, (E)-N-Hydroxy-3-(4-{1-[2-(2-methyl-1H-indol-3-yl)-ethyl]-piperazin-2-yl}-phenyl)-acrylamide] were, in that order, 7 nM and 200 nM.
The like results for `CC(C)CCN1CCCC1c1ccc(/C=C/C(=O)NO)cc1` (centres unmarked) [Compound 36, (E)-N-Hydroxy-3-{4-[1-(3-methyl-butyl)-pyrrolidin-2-yl]-phenyl}-acrylamide] were, in that order, 10 nM and 40 nM.
